From EP4538262A1, “COCRYSTALS OF VORASIDENIB” (SANDOZ AG, priority 2023, dated 2025) come the findings set out here.

The conditions of series [1]: in phosphate buffer pH 6.8 + 0.003% Tween 80, 10% methanol, 25 °C.
The nature of series [2]: Moisture sorption isotherm (DVS). The format is physicochemical. To be noted: between 10 to 90 % RH, RH step of 5% RH. The procedure: The moisture sorption isotherms were recorded with a SPS-11 moisture sorption analyzer (MD Messtechnik, Ulm, Germany). […] The equilibrium condition for each step was set to a mass constancy of ±0.002 % over 40 min.

For the molecule `CC(Nc1nc(NC(C)C(F)(F)F)nc(-c2cccc(Cl)n2)n1)C(F)(F)F.O=C(O)CC(=O)O` (centres unmarked) [Vorasidenib malonic acid cocrystal], in series [1], the “time of transformation to vorasidenib dihydrate” value is “ten”.

In the case of `C[C@@H](Nc1nc(N[C@H](C)C(F)(F)F)nc(-c2cccc(Cl)n2)n1)C(F)(F)F.C[C@@H](Nc1nc(N[C@H](C)C(F)(F)F)nc(-c2cccc(Cl)n2)n1)C(F)(F)F.O.O=C(O)/C=C/C(=O)O` [vorasidenib fumaric acid cocrystal], the DVS water content entry in series [2] was “not more than 2.0 % by weight”.
